According to patent US20250313574A1, “SIALIC ACID DERIVATIVES AND METHODS OF USING SAME” (EISAI R&D MANAGEMENT CO., LTD., priority 2022, published 2025):

Assays:
[1] = target: Recombinant Human Siglec-3/CD33 protein (His-CD33) (Homo sapiens (Human), UniProt P20138); assay: Differential scanning fluorimetry (DSF) thermal shift assay; format: binding
[2] = target: Recombinant human CD33 protein (Homo sapiens (Human), UniProt P20138); assay: CD33 competitive binding assay for HTS drug screen (fluorescent multivalent sialic acid probe)
Chain of Recombinant human CD33 protein (P20138 18-259): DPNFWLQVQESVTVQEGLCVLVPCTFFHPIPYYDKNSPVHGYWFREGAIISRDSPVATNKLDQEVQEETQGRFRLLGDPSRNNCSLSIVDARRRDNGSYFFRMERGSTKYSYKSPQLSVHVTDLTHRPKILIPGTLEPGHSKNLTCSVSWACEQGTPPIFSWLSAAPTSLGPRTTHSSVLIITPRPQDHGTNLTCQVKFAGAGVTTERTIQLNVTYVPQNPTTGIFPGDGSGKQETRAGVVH
Method in brief: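 Inhibition was read as reduced retention of a fluorescent multivalent sialic acid complex (final 5 μM neutravidin, 15 μM A-375, 5 μM biotin-4-FITC) on plate-immobilized human CD33. Compound was added first, the probe followed for 30 min at room temperature in PBS with 0.2% Tween-20 and 0.5% BSA, and FITC was measured after a wash.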

[3] = difference in thermal melt of CD33 protein (0.5 μM) with 50 μM compound
[4] = thermal melt shift of 0.5 μM CD33 protein with 50 μM compound

Chain of Recombinant Human Siglec-3/CD33 protein (His-CD33) (P20138 18-259): as above

Row | Structure (SMILES) | DSF (dTmD) [1, 3] | EC50 [2] | DSF (dTmD) [1, 4]
1 | Cc1cc(C(=O)NC[C@@H](O)[C@@H](O)[C@@H]2O[C@@](C/C=C/c3cccc(CNC(=O)c4ccon4)c3)(C(=O)O)C[C@H](O)[C@H]2NC(=O)Cn2cc(C3CCCCC3)nn2)cc(C)c1O [A-271] | 5.1 °C | 3990 nM | –
2 | CC(=O)N[C@H]1[C@H]([C@H](O)[C@H](O)CNC(=O)c2cc(C)c(O)c(C)c2)O[C@@](CCN2CCCC[C@@]23CN(C(=O)OC(C)(C)C)C[C@H]3CO)(C(=O)O)C[C@@H]1O [A-029] | – | 9730 nM | 2.1
3 | CC(=O)N[C@H]1[C@H]2O[C@](C(=O)O)(C/C=C/CCC[C@@H](NC(=O)[C@H]3CCCOC3)c3cccc(c3)COc3c(C)cc(cc3C)C(=O)NC[C@@H](O)[C@H]2O)C[C@@H]1O [A-355] | 1.3 °C | 35400 nM | –
4 | Cc1cc(C(=O)NC[C@@H](O)[C@@H](O)[C@@H]2O[C@@](OC3CCCCC3NC(=O)Cn3cc(Cn4ncc5ccccc5c4=O)nn3)(C(=O)O)C[C@H](O)[C@H]2NC(=O)Cn2cc(C3CCCCC3)nn2)cc(C)c1O (some centres unmarked) [A-331] | 4.9 °C | 4330 nM | –
5 | CC(=O)N[C@H]1[C@H]([C@H](O)[C@H](O)CNC(=O)c2ccc3c(=O)n(C)cnc3c2)O[C@@](CCN2CCOC[C@@]23CCN(C(=O)OC(C)(C)C)C3)(C(=O)O)C[C@@H]1O [A-138] | – | 600 nM | 6.6
6 | CC(=O)NC1[C@H]([C@H](O)[C@H](O)CNC(=O)c2cc(C)c(O)c(C)c2)O[C@@](CC(=O)N2CCOC[C@]23CCN(C(=O)OC(C)(C)C)C3)(C(=O)O)C[C@@H]1O (some centres unmarked) [A-220] | 9.3 °C | 55 nM | –
7 | CC(=O)N[C@H]1[C@H]([C@H](O)[C@H](O)CNC(=O)c2ccc3occc3c2)O[C@@](CCN2CCOC[C@@]23CCN(C(=O)OC(C)(C)C)C3)(C(=O)O)C[C@@H]1O [A-121] | – | 29 nM | 13.6
8 | CC(=O)N[C@H]1[C@H]([C@H](O)[C@H](O)CNC(=O)c2cc(C)c(O)c(C)c2)O[C@@](CCN2CCOC[C@@]23CCN(C(=O)OC(C)(C)C)C3)(C(=O)NS(=O)(=O)c2ccccc2)C[C@@H]1O [A-368] | −0.1 °C | 15000 nM | –
9 | Cc1cc(C(=O)NC[C@@H](O)[C@@H](O)[C@@H]2O[C@@](C/C=C/c3cccc(CNC(=O)CC4CCOCC4)c3)(C(=O)O)C[C@H](O)[C@H]2NC(=O)Cn2cc(C3CCCCC3)nn2)cc(C)c1O [A-274] | 5.7 °C | 4700 nM | –
10 | CC(=O)N1CCC(C(=O)NCc2cccc(/C=C/C[C@]3(C(=O)O)C[C@H](O)[C@@H](NC(=O)Cn4cc(C5CCCCC5)nn4)[C@H]([C@H](O)[C@H](O)CNC(=O)c4cc(C)c(O)c(C)c4)O3)c2)CC1 [A-266] | 6.2 °C | 1380 nM | –
11 | Cc1cc(C(=O)NC[C@@H](O)[C@@H](O)[C@@H]2O[C@@](OC3CCCCC3NC(=O)Cn3cc(CNC(=O)c4ccccn4)nn3)(C(=O)O)C[C@H](O)[C@H]2NC(=O)Cn2cc(C3CCCCC3)nn2)cc(C)c1O (some centres unmarked) [A-332] | 5.4 °C | 2300 nM | –
12 | CC(=O)N[C@H]1[C@H]([C@H](O)[C@H](O)CNC(=O)c2cc(C)oc2C(F)(F)F)O[C@@](CCN2CCOC[C@@]23CCN(C(=O)OC(C)(C)C)C3)(C(=O)O)C[C@@H]1O [A-160] | – | 680 nM | 8.0
13 | CC(=O)NC1[C@H]([C@H](O)[C@H](O)CNC(=O)c2cc(C)c(O)c(C)c2)O[C@@](CC(=O)N2CCOC[C@@]23CCN(C(=O)OC(C)(C)C)C3)(C(=O)O)C[C@@H]1O (some centres unmarked) [A-221] | 7.0 °C | 162 nM | –
14 | CC(=O)N[C@H]1[C@H]([C@H](O)[C@H](O)CNC(=O)c2cc(C)c(O)c(C)c2)O[C@@](CCN2CCOC[C@@]23CCN(C(=O)NC2CCCCC2)C3)(C(=O)O)C[C@@H]1O [A-045] | – | 19 nM | 12.6
15 | CC(=O)N[C@H]1[C@H]2O[C@](C(=O)O)(C/C=C/COC[C@H](NC(=O)C3CCCOC3)COCCOc3c(C)cc(cc3C)C(=O)NC[C@@H](O)[C@H]2O)C[C@@H]1O (some centres unmarked) [A-339] | 4.4 °C | 5910 nM | –
16 | CC(=O)N[C@H]1[C@H]([C@H](O)[C@H](O)CNC(=O)c2cc(C)c(O)c(C)c2)O[C@@](CCN2CCOC[C@@]23CCN(C(=O)OC(C)(C)C)C3)(c2nn[nH]n2)C[C@@H]1O [A-363] | 2.6 °C | 6360 nM | –
17 | CC(=O)N[C@H]1[C@H]([C@H](O)[C@H](O)CNC(=O)c2cc(Cl)c(O)c(Cl)c2)O[C@@](CC2OC(C)(C)O[C@@H]2c2cccc(C(=O)NCc3ccccc3)c2)(C(=O)O)C[C@@H]1O (some centres unmarked) [A-322] | 3.0 °C | 7790 nM | –

Row | Structure (SMILES) | DSF (dTmD) [1, 3] | EC50 [2] | DSF (dTmD) [1, 4]
18 | CC(=O)N[C@H]1[C@H]([C@H](O)[C@H](O)CNC(=O)c2cc(C)c(O)c(C)c2)O[C@@](CCN2CCOC[C@@]23CCN(C(=O)C2CC4(C2)CC(F)(F)C4)C3)(C(=O)O)C[C@@H]1O [A-069] | – | 123 nM | 8.3
19 | CC(=O)N[C@H]1[C@H]([C@H](O)[C@H](O)CNC(=O)c2cc(C)c(O)c(C)c2)O[C@@](CC2OC(C)(C)O[C@H]2c2cccc(CN3CCOCC3)c2)(C(=O)O)C[C@@H]1O (some centres unmarked) [A-313] | 0.0 °C | 11900 nM | –
20 | CC(=O)N[C@H]1[C@H]([C@H](O)[C@H](O)CNC(=O)c2ccc(C(F)(F)F)c(C(F)(F)F)c2)O[C@@](CCN2CCOC[C@@]23CCN(C(=O)OC(C)(C)C)C3)(C(=O)O)C[C@@H]1O [A-167] | – | 3340 nM | 7.9
21 | CC(=O)N[C@H]1[C@H]([C@H](O)[C@H](O)CNC(=O)c2cc3ncccn3n2)O[C@@](CCN2CCOC[C@@]23CCN(C(=O)OC(C)(C)C)C3)(C(=O)O)C[C@@H]1O [A-122] | – | 32 nM | 12.4
22 | COc1cc(C(=O)NC[C@@H](O)[C@@H](O)[C@@H]2O[C@@](CCN3CCOC[C@@]34CCN(C(=O)OC(C)(C)C)C4)(C(=O)O)C[C@H](O)[C@H]2NC(C)=O)cc(OC)c1O [A-123] | – | 68 nM | 11.0
23 | CC(=O)N[C@H]1[C@H]([C@H](O)[C@H](O)CNC(=O)c2cc(C)c(O)c(C)c2)O[C@@](CCCC2(C)CCN(C(=O)OC(C)(C)C)C2)(C(=O)O)C[C@@H]1O (some centres unmarked) [A-196] | – | 257 nM | 7.7
24 | CC(=O)N[C@H]1[C@H]([C@H](O)[C@H](O)CNC(=O)c2cc(C)c(O)c(C)c2)O[C@@](CCN2CCN(C(C)=O)C[C@@]23CCN(C(=O)OC(C)(C)C)C3)(C(=O)O)C[C@@H]1O [A-014] | – | 19 nM | 12.3
25 | CC(=O)N[C@H]1[C@H]([C@H](O)[C@H](O)CNC(=O)c2cc(C)c(O)c(C)c2)O[C@@](CCN2CCOC[C@@]23CCN(C(=O)C(C)(C)C)C3)(C(=O)O)C[C@@H]1O [A-097] | – | 430 nM | 8.25
26 | CC(=O)N[C@H]1[C@H]([C@H](O)[C@H](O)CNC(=O)c2cc(C)c(O)c(C)c2)O[C@@](C/C=C/c2cccc(CNC(=O)c3ccc(NC(C)(C)C)cc3)c2)(C(=O)O)C[C@@H]1O [A-257] | 5.9 °C | 1600 nM | –
27 | Cc1cc2cc(C)c1OCCCCNC(=O)CCCCCC[C@]1(C(=O)O)C[C@H](O)[C@@H](NC(=O)Cn3cc(C4CCCCC4)nn3)[C@@H](O1)[C@H](O)[C@H](O)CNC2=O [A-346] | 3.4 °C | 13300 nM | –
28 | CC(=O)N[C@H]1[C@H]([C@H](O)[C@H](O)CNC(=O)c2cc(C)c3[nH]ccc3c2)O[C@@](CCN2CCOC[C@@]23CCN(C(=O)OC(C)(C)C)C3)(C(=O)O)C[C@@H]1O [A-109] | – | 6 nM | 16.6
29 | CC(=O)N[C@H]1[C@H]([C@H](O)[C@H](O)CNC(=O)c2cc(C)c(O)c(C)c2)O[C@@](CCN2CCOCC2c2cccnc2)(C(=O)O)C[C@@H]1O (some centres unmarked) [A-024] | – | 7940 nM | 1.1
30 | Cc1cc(C(=O)NC[C@@H](O)[C@@H](O)[C@@H]2O[C@@](OC3CCCCC3NC(=O)CNC(=O)CC3CCOCC3)(C(=O)O)C[C@H](O)[C@H]2NC(=O)Cn2cc(C3CCCCC3)nn2)cc(C)c1O (some centres unmarked) [A-328] | 1.4 °C | 12300 nM | –
31 | CC(=O)N[C@H]1[C@H]([C@H](O)[C@H](O)CNC(=O)c2cc(C)c(O)c(C)c2)O[C@@](CCN2CCOC[C@@]23CCN(C(=S)NC2CC2)C3)(C(=O)O)C[C@@H]1O [A-058] | – | 1380 nM | 5.0
32 | CC(=O)N[C@H]1[C@H]2O[C@](C(=O)O)(C/C=C/c3cccc(c3)[C@@H](NC(=O)C3CCCOC3)CCCc3cc(cc(Cl)c3O)C(=O)NC[C@@H](O)[C@H]2O)C[C@@H]1O (some centres unmarked) [A-352] | 0.7 °C | 94000 nM | –
33 | CC(=O)N[C@H]1[C@H]([C@H](O)[C@H](O)CNC(=O)c2cc(C)c(O)c(C)c2)O[C@@](C/C=C/c2cccc(CNC(=O)c3cccc(NCc4nc(C)cs4)c3)c2)(C(=O)O)C[C@@H]1O [A-245] | 1.2 °C | 9460 nM | –
34 | CC(=O)N[C@H]1[C@H]([C@H](O)[C@H](O)CNC(=O)c2cc(C)c(O)c(C)c2)O[C@@](CCN2CCOC[C@@]23CCN(C(=O)C2(c4ccccc4)CC2)C3)(C(=O)O)C[C@@H]1O [A-098] | – | 685 nM | 6.9
